Assay results taken from US12152087B2, “Deuterated melflufen compounds” (Oncopeptides AB, priority 2018, dated 2024).
Where a name gives a salt, the structure may show the parent alone. Read-outs that look alike come from different tables or passages of the source.

Legend:
[1] = Comparative single dose toxicokinetic study in dogs, 30 minutes intravenous infusion; assay type: in vivo, beagle dogs; details: for half-life / AUC(0-t) / Tmax / Cmax: beagle, dog; for half-life / AUC(0-t) / Tmax / Cmax / Tlast: plasma; for half-life: intravenous, estimable in one animal only, read-out: half-life; for AUC(0-t) / Tmax / Cmax: iv; for AUC(0-t) / Tmax / Cmax / Tlast: mean, labelled analyte; for Cmax: read-out: Cmax; for increase of systemic exposure with increasing doses, assuming dose proportionality: increasing doses of melflufen-d5 (III) infusion (1.25 and 2.5 mg/kg)
Description: A comparative single dose toxicity study in dogs was carried out, comparing melflufen-d5 (III) and melflufen to investigate the toxicokinetics of melflufen and melflufen-d5 (III) and their metabolites, desethyl-melflufen and melphalan, after a single intravenous administration of melflufen-d5 (III) or melflufen as 30 minutes infusion in the dog.
This study aimed to compare the potential acute toxicity of melflufen-d5 (III) and melflufen. The toxicokinetics of melflufen-d5 (III), melflufen and their metabolites desethyl-melflufen and melphalan were evaluated after a single intravenous administration as 30 minutes infusion in dogs.
Melflufen-d5 (III) or melflufen were given as 30 minutes infusion to male and female dogs according to the following scheme:
Blood samples were collected from peripheral vein on Day 1 at pre-dose, 15 min, 30 min (just prior to end of infusion), 40 min, 1 h, 2 h, 4 h and 6 h after the start of infusion).
Blood samples were collected into heparinized collection tubes, put in an ice-water bath and immediately centrifuged (3 minutes, 10000 g, +4° C.). The obtained plasma was divided into two aliquots, placed into pre-chilled cryovials and in a freezer at −70° C. until analysis.
Toxicokinetic Calculations Plasma toxicokinetic analyses for melflufen-d5 (III), melflufen and their metabolites, desethyl-melflufen and melphalan were performed according to standard non-compartmental approach using Phoenix WinNonlin system (v. 6.3, Certara Company, USA).
After administration, Cmax, maximum concentration, and Tmax, time at which the maximum concentration was achieved, were read as the coordinates of the highest plasma concentration of the time course. Clast, last detectable concentration, and Tlast, time of the last detectable concentration, were reported as parameters.
The area under plasma concentration vs. time curve up to the last detectable concentration, AUClast, was calculated by the linear trapezoidal rule.
t1/2,z, the half-life of the terminal phase, was calculated by linear regression analysis of the natural-log concentration vs. time curve according to the formula: […]
AUC∞ the area under plasma concentration vs. time curve up to infinite time, was calculated by adding the portion of the area calculated as Clast/λz to AUClast assuming mono-exponential decay.

[2] = tested on: primary cultures of human tumour cells; details: panels of primary cultures of human tumour cells; cited from earlier work
[3] = 2-fold melflufen-d5 (III) dose increase (1.25 to 2.5 mg/kg), combined genders
[4] = both sexes, 1.25 mg/kg, group 2: melflufen-d5 (III) 1.25 mg/kg 30 min infusion, M + F combined
[5] = both sexes, 2.5 mg/kg, group 3: melflufen-d5 (III) 2.5 mg/kg 30 min infusion, M + F combined
[6] = both sexes, 2.5 mg/kg, group 4: melflufen 2.5 mg/kg 30 min infusion, M + F combined
[7] = female, 1.25 mg/kg, group 2: melflufen-d5 (III) 1.25 mg/kg 30 min infusion, females
[8] = female, 2.5 mg/kg, group 3: melflufen-d5 (III) 2.5 mg/kg 30 min infusion, females
[9] = female, 2.5 mg/kg, group 4: melflufen 2.5 mg/kg 30 min infusion, females
[10] = male, 1.25 mg/kg, group 2: melflufen-d5 (III) 1.25 mg/kg 30 min infusion, males
[11] = male, 2.5 mg/kg, group 3: melflufen-d5 (III) 2.5 mg/kg 30 min infusion, males
[12] = male, 2.5 mg/kg, group 4: melflufen 2.5 mg/kg 30 min infusion, males
[13] = group 2: melflufen-d5 (III) 1.25 mg/kg 30 min infusion, M + F combined
[14] = group 2: melflufen-d5 (III) 1.25 mg/kg 30 min infusion, females
[15] = group 2: melflufen-d5 (III) 1.25 mg/kg 30 min infusion, males
[16] = group 3: melflufen-d5 (III) 2.5 mg/kg 30 min infusion, M + F combined
[17] = group 3: melflufen-d5 (III) 2.5 mg/kg 30 min infusion, females
[18] = group 3: melflufen-d5 (III) 2.5 mg/kg 30 min infusion, males
[19] = group 4: melflufen 2.5 mg/kg 30 min infusion, M + F combined
[20] = group 4: melflufen 2.5 mg/kg 30 min infusion, females
[21] = group 4: melflufen 2.5 mg/kg 30 min infusion, males

## N[C@@H](Cc1ccc(N(CCCl)CCCl)cc1)C(=O)N[C@@H](Cc1ccc(F)cc1)C(=O)O [desethyl-melflufen, (2S)-2-[[(2S)-2-amino-3-[4-[bis(2-chloroethyl)amino]phenyl]propanoyl]amino]-3-(4-fluorophenyl)propanoic acid]
[1]; [3]
  increase of AUClast of the metabolite with dose: 3.5 fold
  increase of Cmax of the metabolite with dose: 3.1 fold
[1]; after melflufen-d5 (III) infusion
  exposure relative to the parent compound exposure: about one-half
[1]; 2.5 mg/kg, after melflufen 2.5 mg/kg (group 4)
  half-life: 7 min
[1]; 2.5 mg/kg, after melflufen-d5 (III) 2.5 mg/kg
  half-life: 5 min
[1]; [4]
  AUC(0-t): 0.0144 µM·h
  Tmax: 30 min
  Cmax: 33.2 nM
[1]; [5]
  AUC(0-t): 0.0506 µM·h
  Tmax: 27.5 min
  Cmax: 102 nM
[1]; [6]
  AUC(0-t): 0.0325 µM·h
  Tmax: 27.5 min
  Cmax: 71.4 nM
[1]; each at 2.5 mg/kg
  average exposure to the metabolite after infusion of melflufen compared with after infusion of melflufen-d5 (III): lower
[1]; [7]
  AUC(0-t): 0.0132 µM·h
  Tmax: 30 min
  Cmax: 30.8 nM
[1]; [8]
  AUC(0-t): 0.0358 µM·h
  Tmax: 30 min
  Cmax: 70.3 nM
[1]; [9]
  AUC(0-t): 0.0287 µM·h
  Tmax: 25 min
  Cmax: 60.5 nM
[1]
  increase of systemic exposure with increasing doses, assuming dose proportionality: slightly more than expected
[1]; labelled metabolite after 1.25-2.5 mg/kg melflufen-d5 (III) infusion
  no longer detectable after, post-dosing: 40 to 60 min
[1]; labelled metabolite after 1.25 and 2.5 mg/kg melflufen-d5 (III) infusion (groups 2 and 3)
  time of maximal plasma concentration: 15 to 30 min
[1]; [10]
  AUC(0-t): 0.0155 µM·h
  Tmax: 30 min
  Cmax: 35.6 nM
[1]; [11]
  AUC(0-t): 0.0655 µM·h
  Tmax: 25 min
  Cmax: 134 nM
[1]; [12]
  AUC(0-t): 0.0363 µM·h
  Tmax: 30 min
  Cmax: 82.2 nM
[1]; [13]
  Tlast: 0.667 h
[1]; [14]
  Tlast: 0.667 h
[1]; [15]
  Tlast: 0.667 h
[1]; [16]
  Tlast: 1.00 h
[1]; [17]
  Tlast: 1.00 h
[1]; [18]
  Tlast: 1.00 h
[1]; [19]
  Tlast: 0.945 h
[1]; [20]
  Tlast: 0.889 h
[1]; [21]
  Tlast: 1.00 h

## CCOC(=O)[C@H](Cc1ccc(F)cc1)NC(=O)[C@@H](N)Cc1ccc(N(CCCl)CCCl)cc1 [melflufen, L-Melphalanyl-4-fluoro-L-phenylalanine ethyl ester]
[1]; [6]
  AUC(0-t): 0.0433 µM·h
  Tmax: 20 min
  Cmax: 144 nM
[1]; each at 2.5 mg/kg (group 4 vs group 3)
  average exposure to melflufen, fold lower than that to melflufen-d5 (III): 2 fold
[1]; [9]
  AUC(0-t): 0.0539 µM·h
  Tmax: 25 min
  Cmax: 163 nM
[1]; [12]
  AUC(0-t): 0.0326 µM·h
  Tmax: 15 min
  Cmax: 124 nM
[1]; [19]
  Tlast: 0.500 h
[1]; [20]
  Tlast: 0.500 h
[1]; [21]
  Tlast: 0.500 h
[1]; melflufen infused for 30 minutes at 2.5 mg/kg (group 4)
  time of peak in plasma: 15 to 30 min
[2]
  efficacy, fold higher than melphalan: 50 to 100 fold

## [2H]C([2H])([2H])C([2H])([2H])OC(=O)C(Cc1ccc(F)cc1)NC(=O)C(N)Cc1ccc(N(CCCl)CCCl)cc1 [melflufen-d5 (III), (^2H5)ethyl (2S)-2-[(2S)-2-amino-3-{4-[bis(2-chloroethyl)amino]phenyl}propanamido]-3-(4-fluorophenyl)propanoate hydrochloride]
[1]; 2.5 vs 1.25 mg/kg melflufen-d5 (III) (2-fold dose increase), combined gender parameters
  increase of exposure with the dose in terms of peak and area under the curve: 2.7 fold
[1]; [4]
  AUC(0-t): 0.0336 µM·h
  Tmax: 22.5 min
  Cmax: 98.5 nM
[1]; [5]
  AUC(0-t): 0.0902 µM·h
  Tmax: 22.5 min
  Cmax: 253 nM
[1]; equivalent doses
  exposure after infusion of melflufen-d5 (III) compared to melflufen: consistently higher
[1]; [7]
  AUC(0-t): 0.0296 µM·h
  Tmax: 30 min
  Cmax: 99.3 nM
[1]; [8]
  AUC(0-t): 0.0564 µM·h
  Tmax: 20 min
  Cmax: 159 nM
[1]
  increase of systemic exposure with increasing doses, assuming dose proportionality: slightly more than expected
[1]; [10]
  AUC(0-t): 0.0377 µM·h
  Tmax: 15 min
  Cmax: 97.7 nM
[1]; [11]
  AUC(0-t): 0.124 µM·h
  Tmax: 25 min
  Cmax: 346 nM
[1]; [13]
  Tlast: 0.528 h
[1]; [14]
  Tlast: 0.50 h
[1]; [15]
  Tlast: 0.556 h
[1]; [16]
  Tlast: 0.611 h
[1]; [17]
  Tlast: 0.611 h
[1]; [18]
  Tlast: 0.611 h
[1]; melflufen-d5 (III) infused for 30 minutes at 1.25 and 2.5 mg/kg (groups 2 and 3)
  disappeared from plasma, time from start of dosing: ≤ 40 min
